IC50 data for one compound are collected here from publication PMC6423783, “Flavokawain B targets protein neddylation for enhancing the anti-prostate cancer effect of Bortezomib via Skp2 degradation” (Cell Communication and Signaling : CCS, 2019).

The term IC50 denotes the midpoint of a concentration-inhibition curve.

SMILES strings stand for the structures.

For this assay, the target named is T1, NAE1 regulatory subunit APP-BP1 (NEDD8 activating enzyme, NAE) (Homo sapiens, UniProt Q13564).
T1 construct: APP-BP1/UBA3 (NEDD8 ligase E1); with UBA3
T1 sequence (Q13564 2-534): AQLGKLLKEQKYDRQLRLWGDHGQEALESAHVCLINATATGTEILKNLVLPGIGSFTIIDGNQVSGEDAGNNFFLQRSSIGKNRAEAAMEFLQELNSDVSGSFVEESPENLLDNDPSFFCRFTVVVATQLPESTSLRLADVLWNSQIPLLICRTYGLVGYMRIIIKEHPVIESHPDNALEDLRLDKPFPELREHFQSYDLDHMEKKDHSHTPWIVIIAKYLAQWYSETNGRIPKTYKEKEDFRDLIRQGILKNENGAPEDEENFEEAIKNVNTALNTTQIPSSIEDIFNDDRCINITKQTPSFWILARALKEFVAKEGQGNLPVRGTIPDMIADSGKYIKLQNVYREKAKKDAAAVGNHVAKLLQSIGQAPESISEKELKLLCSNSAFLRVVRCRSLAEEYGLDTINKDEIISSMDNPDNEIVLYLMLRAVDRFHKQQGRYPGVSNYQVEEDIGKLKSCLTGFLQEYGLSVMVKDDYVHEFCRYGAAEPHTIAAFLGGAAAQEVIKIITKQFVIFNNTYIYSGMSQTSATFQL
T1 sequence (Q8TBC4 2-463 partner): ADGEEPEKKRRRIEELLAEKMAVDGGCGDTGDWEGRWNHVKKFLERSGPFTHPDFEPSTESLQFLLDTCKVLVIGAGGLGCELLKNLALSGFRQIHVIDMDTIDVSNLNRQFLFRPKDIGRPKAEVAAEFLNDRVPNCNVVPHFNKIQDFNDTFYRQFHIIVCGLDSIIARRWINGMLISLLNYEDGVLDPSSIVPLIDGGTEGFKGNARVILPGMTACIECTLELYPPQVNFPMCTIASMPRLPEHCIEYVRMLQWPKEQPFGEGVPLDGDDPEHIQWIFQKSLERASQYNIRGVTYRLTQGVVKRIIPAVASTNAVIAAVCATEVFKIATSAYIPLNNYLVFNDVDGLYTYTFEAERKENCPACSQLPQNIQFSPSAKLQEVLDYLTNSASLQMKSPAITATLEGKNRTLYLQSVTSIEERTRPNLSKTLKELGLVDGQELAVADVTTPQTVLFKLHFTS
As to the kind of experiment: in vitro NEDD8 initiation conjugation assay (APP-BP1/UBA3, UbcH12, NEDD8; Western readout), supported by CETSA of APP-BP1 in PC3 cells. Format: biochemical. How it is done:
in vitro NEDD8 initiation conjugation assay (APP-BP1/UBA3, UbcH12, NEDD8; Western readout), supported by CETSA of APP-BP1 in PC3 cells on NAE1 regulatory subunit APP-BP1 (NEDD8 activating enzyme, NAE) | The relative density of NEDD8-Ubc12 to the control was analyzed to have an estimated IC50 of approximately11μM

`COc1cc(O)c(C(=O)/C=C/c2ccccc2)c(OC)c1` [FKB, Flavokawain B] had an IC50 of approximately 11 µM.
